Measurements taken from patent US4061645A, “2-Trichloromethyl-5-methylsulfinyl-1,3,4-thiadiazole” (Schering Aktiengesellschaft, priority 1972, dated 1977).

Tests used:
Type in all cases: in vivo
[1] = system: Rhizoctonia solani; experiment: Limit concentration of soil-fungicidal effectiveness, Rhizoctonia solani, infested soil seeded with peas (Example 1); settings: soil, 480 h, read-out: Limit concentration of the fungicidal effectiveness
Outline: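 Compound mixed homogeneously into steamed compost soil inoculated with Rhizoctonia solani mycelium, and 25 marrow pea seeds ("Miracle of Kelvedon") sown per concentration without a waiting period. Grown 20 to 23 days at 22°-25° C. Limit concentration is the lowest giving sound, necrosis-free roots and at least 90% germination relative to steamed soil.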

[2] = system: Fusarium oxysporum f. callistephi; experiment: Fusarium infested compost soil, Callistephus chinesis seedlings (Example 5); settings: of 4 seedlings
From the text: Steamed compost soil was inoculated with a spore suspension of Fusarium oxysporum f. callistephi. After homogeneous mixture of the products with the infested soil, the products were present as 20% powder preparations, and after a waiting period of 8 days, there were set out per concentration 4 seedlings of Callistephus chinesis, master aster "Sun Ray" as host plants.

[3] = system: Rhizoctonia solani; experiment: Rhizoctonia solani infested compost soil, marrow peas (Example 3); settings: for Weight of fresh plant / Root evaluation (1-4): 3 weeks; for Number of sound peas after 3 wks.: of 25 grains
From the text: Steamed compost soil was inoculated with mycelium of Rhizoctonia solani. After homogeneous mixture of the products with the infested soil, the products were present in the form of 20% powder preparations, the seeding of 25 grains of marrow peas of the variety "Miracle of Kelvedon" per concentration was effected without waiting period in clay dishes holding 1 liter of soil. The table lists the number of germinated sound peas, the weight of the fresh plant, and a root evaluation after a cultivation period of three weeks at 22°-25° C.

[4] = system: Pythium ultimum; experiment: Pythium ultimum infested compost soil, marrow peas (Example 2); settings: 200 mg active ingr. per liter of soil
From the text: Steamed compost soil was inoculated with mycelium of Pythium ultimum.

[5] = system: Pythium ultimum; experiment: Limit concentration of soil-fungicidal effectiveness, Pythium ultimum, infested soil seeded with peas (Example 1); settings: 20 to 23 days, 22°-25° C
Procedure: Limit concentrations of the soil-fungicidal effectiveness at homogeneous mixture of the products with the infested soil. Basic condition in the evaluation are a sound root formation without fungus necroses and germination of the seed of at least 90% compared with the result obtained in steamed soil. Per concentration there were seeded 25 grains of peas of the variety "Miracle of Kelvedon" (marrow pea) without a waiting period. The cultivation time in the tests was 20 to 23 days at a temperature of 22°-25° C. Four commercial products were included in the test series.
Pythium ultimum: -- Steamed compost soil was inoculated with mycelium of Pythium ultimum

[6] = 10 mg active ingr. per liter of soil
[7] = 20 mg active ingr. per liter of soil
[8] = 30 mg active ingr. per liter of soil
[9] = 40 mg active ingr. per liter of soil
[10] = 50 mg active ingr. per liter of soil
[11] = 100 mg active ingr. per liter of soil

COc1cc(Cl)c(OC)cc1Cl [1,4-dichloro-2,5-dimethoxy-benzene, 1,4-dichloro-2,5-dimethoxybenzene, reference compound]
minimal effective concentration [1]: 30 µg/mL
Number of attacked plants after 3 weeks ([2]; 50 mg active ingredient per liter of soil): 4
Number of attacked plants after 3 weeks ([2]; 100 mg active ingredient per liter of soil): 4
Number of attacked plants after 3 weeks ([2]; 200 mg active ingredient per liter of soil): 4
Weight of fresh plant [3, 6]: 0 g
Number of sound peas after 3 wks. [3, 6]: 0
Weight of fresh plant [3, 7]: 0 g
Number of sound peas after 3 wks. [3, 7]: 0
Root evaluation (1-4) [3, 8]: 4
Weight of fresh plant [3, 8]: 18 g
Number of sound peas after 3 wks. [3, 8]: 21
Root evaluation (1-4) [3, 9]: 4
Weight of fresh plant [3, 9]: 18 g
Number of sound peas after 3 wks. [3, 9]: 22
Root evaluation (1-4) ([4]; 3 weeks): 1
Weight of fresh plant ([4]; 3 weeks): 1 g
Number of sound peas after 3 wks. ([4]; of 25 grains): 2
Limit concentration of the fungicidal effectiveness [5]: insufficient

O=[N+]([O-])c1c(Cl)c(Cl)c(Cl)c(Cl)c1Cl [Pentachloronitrobenzene, pentachloronitrobenzene, reference compound]
minimal effective concentration [1]: 75 µg/mL
Weight of fresh plant [3, 10]: 4 g
Number of sound peas after 3 wks. [3, 10]: 4
Weight of fresh plant [3, 11]: 15 g
Number of sound peas after 3 wks. [3, 11]: 25
Limit concentration of the fungicidal effectiveness [5]: insufficient
